Assay results from patent US20050250677A1, “Glycopeptide antibiotic derivatives” (priority 2002, published 2005).
Read-outs that look alike come from different tables or passages of the source.

Legend:
HEL cells [1] = test system: HEL cells
HEL cells [2] = settings: read-out: CC50 (HEL), HEL cells
VZV (wild-type strains) = assay: Anti-VZV assay (wild-type strains): virus-induced cytopathicity in HEL cell cultures; format: cell-based, varicella-zoster virus
CMV = assay: Anti-CMV assay: virus-induced cytopathicity in HEL cell cultures
FCV = assay: Feline corona virus assay in Feline Crandel kidney cells (MTS); format: cell-based; settings: for EC50: FCV in FCK cells, read-out: EC50 FCV
Description: Feline Crandel kidney cells were seeded in 96-well microtiter plates at 24,000 cells/well. Then, 24 hrs later, an appropriate inoculum of FCV is added together with 5-fold dilutions of the test compounds. After 4 days, a MTS/PMS solution was added to each well. Following a 90 min incubation period at 37° C., the optical density of the wells was read at 498 nm in a microplate reader.

murine leukemia L1210 = assay: Cytostatic activity assay, L1210 cells; format: cell-based; settings: read-out: IC50 L1210 (compound concentration required to inhibit tumor cell proliferation by 50%)
[3] = test system: human lymphocyte Molt4/clone 8; assay: Cytostatic activity assay, Molt4/clone 8 cells; format: cell-based; settings: read-out: IC50 Molt4/C8 (compound concentration required to inhibit tumor cell proliferation by 50%)
human lymphocyte CEM = assay: Cytostatic activity assay, CEM cells; format: cell-based; settings: read-out: IC50 CEM (compound concentration required to inhibit tumor cell proliferation by 50%)
FCK cells = settings: read-out: CC50 FCK; FCK cells
HIV-1 (IIIB) = assay: Inhibition of HIV-1 (IIIB)-induced cytopathicity (giant cell formation) in CEM cells; format: cell-based; settings: read-out: EC50 HIV-1 (concentration required to inhibit HIV-induced giant cell formation by 50%); HIV-1, CEM cell cultures
Description: (§1) A variety of glycopeptide antibiotic derivatives of vancomycin, eremomycin and teicoplanin including their aglycon derivatives were evaluated for their inhibitory activity against HIV-1 (IIIB) and HIV-2(ROD) in CEM cell cultures.

HIV-2(ROD) = assay: Inhibition of HIV-2 (ROD)-induced cytopathicity (giant cell formation) in CEM cells; format: cell-based; settings: read-out: EC50 HIV-2 (concentration required to inhibit HIV-induced giant cell formation by 50%); HIV-2, CEM cell cultures
Description: as §1

[4] = VZV strain OKA, HEL cell cultures, read-out: EC50 VZV (OKA)
[5] = VZV strain YS, HEL cell cultures, read-out: EC50 VZV (YS)
[6] = read-out: EC50 CMV AD-169, CMV strain AD-169, HEL cell cultures
[7] = read-out: EC50 CMV Davis, CMV strain Davis, HEL cell cultures

Compound | MTC (HEL) (HEL cells [1]; anti-CMV table) | MTC (HEL) (HEL cells [1]; anti-VZV table) | CC50 (HEL cells [2]; anti-CMV table) [µM] | CC50 (HEL cells [2]; anti-VZV table) [µM] | EC50 (VZV (wild-type strains); [4]) [µM] | EC50 (VZV (wild-type strains); [5]) [µM] | EC50 (CMV; [6]) [µM] | activity against FCV (FCV) | EC50 (FCV) [µM] | IC50 (murine leukemia L1210) [µM] | IC50 [3] [µM] | IC50 (human lymphocyte CEM) [µM] | CC50 (FCK cells) [µM] | activity against VZV (VZV (wild-type strains)) | EC50 (HIV-1 (IIIB)) [µM] | EC50 (HIV-2(ROD)) [µM] | EC50 (CMV; [7]) [µM] | EC50 (VZV (wild-type strains); read-out: EC50 against VZV) [µM] | anti-CMV activity (CMV)
O=C1NC2C(=O)NC3C(=O)NC4C(=O)NC(C(=O)NC(C(=O)O)c5cc(O)cc(O)c5-c5cc4ccc5O)C(O)c4ccc(c(Cl)c4)Oc4cc3cc(c4O)Oc3ccc(cc3Cl)CC1NC(=O)C(NCc1ccc(-c3ccccc3)cc1)c1ccc(O)c(c1)Oc1cc(O)cc2c1 (stereo not drawn) [Compound 122] | 20 to 50 µM | 20 to 50 µM | > 50 | > 50 | 1 | 1 | > 20 |  |  |  |  |  |  |  |  |  |  |  | 
CNC(=O)C1NC(=O)C2NC(=O)C(NC(=O)C3NC(=O)C(CC(N)=O)NC(=O)C(NC(=O)C(CC(C)C)N(C)C(=O)OC(C)(C)C)C(O)c4ccc(c(Cl)c4)Oc4cc3cc(c4O)Oc3ccc(cc3)C2O)c2ccc(O)c(c2)-c2c1cc(O)c(CN1CCN(Cc3ccc(-c4ccccc4)cc3)CC1)c2O (stereo not drawn) [Compound 7] |  | ≧20 μM |  | > 50 | 1 | 0.87 |  | pronounced activity | 3.6 | 84 ± 22 | > 100 | > 100 | > 50 | pronounced activity | 4 | 3.5 ± 0.7 |  |  | 
CCCCc1ccc(CNC2C(Oc3c4cc5cc3Oc3ccc(cc3Cl)C(O)C3NC(=O)C(NC(=O)C5NC(=O)C5NC(=O)C(Cc6ccc(cc6)O4)NC(=O)C(NC)c4ccc(O)c(c4)Oc4cc(O)c(Cl)c5c4)c4ccc(O)c(c4)-c4c(cc(O)c(CN5CCN(Cc6ccc(-c7ccccc7)cc6)CC5)c4O)C(C(=O)NCCCN(C)C)NC3=O)OC(C(=O)NCCCN(C)C)C(O)C2O)cc1 (stereo not drawn) [Compound 13] |  |  |  |  |  |  |  | pronounced activity | 5.9 | 25 ± 0.7 | 35 ± 6.1 | 212 ± 54 | 30 |  | 3.5 ± 2.1 | 20 |  |  | 
CNC(CC(C)C)C(=O)NC1C(=O)NC(CC(N)=O)C(=O)NC2C(=O)NC3C(=O)NC(C(=O)NC(C(=O)NCC45CC6CC(CC(C6)C4)C5)c4cc(O)cc(O)c4-c4cc3ccc4O)C(O)c3ccc(cc3)Oc3cc2cc(c3O)Oc2ccc(cc2Cl)C1O (stereo not drawn) [Compound 99] |  |  |  |  |  |  |  | pronounced activity | 23 | 94 ± 15 | 126 ± 11 | 148 ± 3 | ≥ 100 |  | 1.6 ± 0.36 | 7 |  |  | 
CCCCCCCCCC[N+](C)(C)CCCNC(=O)C1NC(=O)C2NC(=O)C(NC(=O)C3NC(=O)C4NC(=O)C(Cc5ccc(c(Cl)c5)Oc5cc3cc(c5O)Oc3ccc(cc3Cl)C2O)NC(=O)C(N)c2ccc(O)c(c2)Oc2cc(O)cc4c2)c2ccc(O)c(c2)-c2c1cc(O)c(CN1CC[N+](C)(CCCCCCCCCC)CC1)c2O (stereo not drawn) [Compound 39] | ≧5 μM | ≧5 μM | 170 | 170 | 0.9 | 0.81 | > 2 |  |  | 7.3 ± 0.3 | 14 ± 3 | 14 ± 2 |  |  |  | 1.3 ± 0.21 | 4 |  | 
NC(=O)CC1NC(=O)C(NC(=O)C(N)Cc2c[nH]c3ccccc23)C(O)c2ccc(c(Cl)c2)Oc2cc3cc(c2O)Oc2ccc(cc2)C(O)C2NC(=O)C(NC(=O)C3NC1=O)c1ccc(O)c(c1)-c1c(O)cc(O)cc1C(C(=O)O)NC2=O [Compound 109, N-(D-Trp)-(de-N-Me-D-Leu)eremomycin aglycon] |  |  |  |  |  |  |  | pronounced activity | 28 | > 250 | > 250 | > 250 | > 100 |  | 7.3 ± 0.58 | 42.5 ± 10.6 |  |  | 
CNC(CC(C)C)C(=O)NC1C(=O)NC(CC(N)=O)C(=O)NC2C(=O)NC3C(=O)NC(C(=O)NC(C(=O)N4CCC5CCCCC5C4)c4cc(O)cc(O)c4-c4cc3ccc4O)C(O)c3ccc(cc3)Oc3cc2cc(c3O)Oc2ccc(cc2Cl)C1O (stereo not drawn) [Compound 101] |  |  |  |  |  |  |  | pronounced activity | 47 | > 250 | > 250 | > 250 | > 100 |  | 63.3 ± 53.5 | > 125 |  |  | 
NC(=O)CC1NC(=O)C(N)C(O)c2ccc(c(Cl)c2)Oc2cc3cc(c2O)Oc2ccc(cc2)C(O)C2NC(=O)C(NC(=O)C3NC1=O)c1ccc(O)c(c1)-c1c(O)cc(O)cc1C(C(=O)NCC13CC4CC(CC(C4)C1)C3)NC2=O (stereo not drawn) [Compound 107] |  |  |  |  |  |  |  |  | 40 |  |  |  | > 300 |  | 5 | 3.5 |  |  | 
CNC(CC(C)C)C(=O)NC1C(=O)NC(CC(N)=O)C(=O)NC2C(=O)NC3C(=O)NC(C(=O)NC(C(=O)O)c4cc(O)cc(O)c4-c4cc3ccc4O)C(O)c3ccc(c(Cl)c3)Oc3cc2cc(c3OC2OC(CO)C(O)C(O)C2OC2CC(C)(NCc3ccc(-c4ccc(Cl)cc4)cc3)C(O)C(C)O2)Oc2ccc(cc2Cl)C1O (stereo not drawn) [Compound 59] | 5 to 20 µM | 5 to 20 µM | > 50 | > 50 | 0.87 | 0.89 | > 5 |  |  |  |  |  |  |  |  |  | 16 | 0.87 to 0.89 | anti-CMV activity
NC1C(=O)NC2Cc3ccc(c(Cl)c3)Oc3cc4cc(c3O)Oc3ccc(cc3Cl)C(O)C3NC(=O)C(NC(=O)C4NC(=O)C(NC2=O)c2cc(O)cc(c2)Oc2cc1ccc2O)c1ccc(O)c(c1)-c1c(O)cc(O)cc1C(C(=O)N1CCN(Cc2ccc(C=Cc4ccccc4)cc2)CC1)NC3=O (stereo not drawn) [Compound 127] | ≧5-20 μM | ≧5-20 μM | 44 | 44 | 0.7 | 0.3 | 10 |  |  |  |  |  |  |  |  |  | > 5 |  | 
CNC(CC(C)C)C(=O)NC1C(=O)NC(CC(N)=O)C(=O)NC2C(=O)NC3C(=O)NC(C(=O)NC(C(=O)NCc4ccc(F)cc4)c4cc(O)cc(O)c4-c4cc3ccc4O)C(O)c3ccc(cc3)Oc3cc2cc(c3O)Oc2ccc(cc2Cl)C1O (stereo not drawn) [Compound 100] |  |  |  |  |  |  |  | pronounced activity | 20 | > 250 | > 250 | > 250 | > 100 |  | 41.7 ± 20.2 | > 125 |  |  | 
NC(=O)CC1NC(=O)C(N)C(O)c2ccc(c(Cl)c2)Oc2cc3cc(c2O)Oc2ccc(cc2)C(O)C2NC(=O)C(NC(=O)C3NC1=O)c1ccc(O)c(c1)-c1c(O)cc(O)cc1C(C(=O)NCc1ccc(F)cc1)NC2=O (stereo not drawn) [Compound 106] |  |  |  |  |  |  |  |  | 74 |  |  |  | > 300 |  | 27 | 30 |  |  | 
CCCCCCCCCCNC1(C)CC(OC2C(Oc3c4cc5cc3Oc3ccc(cc3Cl)C(O)C(NC(=O)C(CC(C)C)NC)C(=O)NC(CC(N)=O)C(=O)NC5C(=O)NC3C(=O)NC(C(=O)NC(C(=O)O)c5cc(O)cc(O)c5-c5cc3ccc5O)C(OC3CC(C)(N)C(O)C(C)O3)c3ccc(cc3)O4)OC(CO)C(O)C2O)OC(C)C1O (stereo not drawn) [Compound 68] | 5 to 50 µM | 5 to 50 µM | > 200 | > 200 | > 2 | 0.7 | 20 |  |  |  |  |  |  |  |  |  | > 20 |  | 
CCCCc1ccc(CNCc2c(O)cc3c(c2O)-c2cc(ccc2O)C2NC(=O)C4NC(=O)C5NC(=O)C(Cc6ccc(c(Cl)c6)Oc6cc4cc(c6O)Oc4ccc(cc4Cl)C(O)C(NC2=O)C(=O)NC3C(=O)NC)NC(=O)C(NC(=O)OC(C)(C)C)c2ccc(O)c(c2)Oc2cc(O)cc5c2)cc1 (stereo not drawn) [Compound 47] |  |  |  |  |  |  |  |  | 16 | 70 ± 23 | > 100 | > 100 | > 50 |  | 6 ± 1 | 12 ± 5.2 |  |  | 
NC1C(=O)NC2Cc3ccc(c(Cl)c3)Oc3cc4cc(c3O)Oc3ccc(cc3Cl)C(O)C3NC(=O)C(NC(=O)C4NC(=O)C(NC2=O)c2cc(O)cc(c2)Oc2cc1ccc2O)c1ccc(O)c(c1)-c1c(cc(O)c(CNC2C4CC5CC(C4)CC2C5)c1O)C(C(=O)NC1C2CC4CC(C2)CC1C4)NC3=O (stereo not drawn) [Compound 52] |  |  |  |  |  |  |  |  | 14 | 202 ± 68 | > 250 | > 250 | > 50 |  | 2.5 ± 0.7 | 3.5 ± 2.1 |  |  | 
